System: Osteoblasts (Calvarial cells)
Test: Cytotoxicity test (MTT)
Details: 1 μM compound, 72 hours, in comparison with vehicle control
Experimental: For the preparation of osteoblasts (Calvarial cells), the calvaria were aseptically dissected from 1 to 2-day-old neonatal ICR mice and subjected to continuous reaction with a 0.2% collagenase solution to separate osteoblasts. The cell-suspended supernatant was centrifuged to recover osteoblasts which were grown to full confluence in an α-MEM supplemented with 10% FBS and then diluted to a desired cell density for use in the experiment.
Cytotoxicity of the compounds of the present invention was evaluated by carrying out the experiment described below.
The vehicle control group was established to contain 0.2% DMSO. 100 μL/well of the diluted drugs were dispensed into 96-well plates to which osteoblasts (calvarial cells) prepared in Experimental Example 1 were then added at a density of 1.0×10^4 cells/100 μL/well. Here, the final compound concentration in the cell culture was 1 μM, and the vehicle control group contained 0.1% DMSO. The cells were cultured in a 5% CO2 inhibitor at 37° for 72 hours. 25 μL of 3-(4,5-dimethyl-2-thiazolyl)-2,5-diphenyl-2H-tetrazolium bromide (MTT) dissolved in PBS (2 mg/mL) was added to each cell culture 4 hours before the end of culture. After completion of the reaction, the plates were centrifuged, the media were discarded, and 100 μL of formazan was added and dissolved in dimethyl sulfoxide (DMSO). Finally, the absorbance of the developed plates was measured at 540 nm. The cell viability was expressed as % concentration in comparison with the vehicle control group.

| Compound | Cell viability (%) Calvarial cell |
| --- | --- |
| NC(=O)C1CCCN(c2ccc(Nc3nc(NCCCn4ccnc4)ccc3[N+](=O)[O-])cc2F)C1 (stereo not shown) [Compound 312, 2-{[3-fluoro-4-(3-carbamoylpiperidino)]phenylamino}-6-[(3-imidazol-1-yl)propylamino]-3-nitropyridine] | 98% |
| NC(=O)C1CCCN(c2ccc(Nc3nc(NCCN4CCOCC4)ccc3[N+](=O)[O-])cc2F)C1 (stereo not shown) [Compound 313, 2-{[3-fluoro-4-(3-carbamoylpiperidino)]phenylamino}-6-[2-(morpholin-1-yl)ethylamino]-3-nitropyridine] | 106% |
| NC(=O)C1CCCN(c2ccc(Nc3nc(NCCCN4CCOCC4)ccc3[N+](=O)[O-])cc2F)C1 (stereo not shown) [Compound 314, 2-{[3-fluoro-4-(3-carbamoylpiperidino)]phenylamino}-6-[(3-morpholin-1-yl)propylamino]-3-nitropyridine] | 103% |
| CCN(CC)c1ccc([N+](=O)[O-])c(Nc2ccc(N3CCCC(C(N)=O)C3)c(F)c2)n1 (stereo not shown) [Compound 315, 2-{[3-fluoro-4-(3-carbamoylpiperidino)]phenylamino}-6-(diethylamino)-3-nitropyridine] | 104% |
| CNc1ccc([N+](=O)[O-])c(Nc2ccc(N3CCC(C(=O)O)CC3)c(F)c2)n1 [Compound 316, 2-{[3-fluoro-4-(4-carboxylicpiperidino)]phenylamino}-6-(methylamino)-3-nitropyridine] | 95% |
| CC(C)Nc1ccc([N+](=O)[O-])c(Nc2ccc(N3CCC(C(=O)O)CC3)c(F)c2)n1 [Compound 317, 2-{[3-fluoro-4-(4-carboxylicpiperidino)]phenylamino}-6-(isopropylamino)-3-nitropyridine] | 99% |
| CC(C)CNc1ccc([N+](=O)[O-])c(Nc2ccc(N3CCC(C(=O)O)CC3)c(F)c2)n1 [Compound 318, 2-{[3-fluoro-4-(4-carboxylicpiperidino)]phenylamino}-6-(isobutylamino)-3-nitropyridine] | 103% |
| O=C(O)C1CCN(c2ccc(Nc3nc(N4CCC(O)CC4)ccc3[N+](=O)[O-])cc2F)CC1 [Compound 319, 2-{[3-fluoro-4-(4-carboxylicpiperidino)]phenylamino}-6-(4-hydroxypiperidino)-3-nitropyridine] | 112% |
| CN1CCN(c2ccc([N+](=O)[O-])c(Nc3ccc(N4CCC(C(=O)O)CC4)c(F)c3)n2)CC1 [Compound 320, 2-{[3-fluoro-4-(4-carboxylicpiperidino)]phenylamino}-6-(4-methylpiperazin-1-yl)-3-nitropyridine] | 101% |
| O=C(O)C1CCN(c2ccc(Nc3nc(NCc4cccnc4)ccc3[N+](=O)[O-])cc2F)CC1 [Compound 321, 2-{[3-fluoro-4-(4-carboxylicpiperidino)]phenylamino}-6-[(3-pyridyl)methylamino]-3-nitropyridine] | 101% |
| O=C(O)C1CCN(c2ccc(Nc3nc(NCc4ccncc4)ccc3[N+](=O)[O-])cc2F)CC1 [Compound 322, 2-{[3-fluoro-4-(4-carboxylicpiperidino)]phenylamino}-6-[(4-pyridyl)methylamino]-3-nitropyridine] | 106% |
| O=C(O)C1CCN(c2ccc(Nc3nc(NCCCn4ccnc4)ccc3[N+](=O)[O-])cc2F)CC1 [Compound 323, 2-{[3-fluoro-4-(4-carboxylicpiperidino)]phenylamino}-6-[(3-imidazol-1-yl)propylamino]-3-nitropyridine] | 105% |
| O=C(O)C1CCN(c2ccc(Nc3nc(NCCN4CCOCC4)ccc3[N+](=O)[O-])cc2F)CC1 [Compound 324, 2-{[3-fluoro-4-(4-carboxylicpiperidino)]phenylamino}-6-[2-(morpholin-1-yl)ethylamino]-3-nitropyridine] | 82% |
| O=C(O)C1CCN(c2ccc(Nc3nc(NCCCN4CCOCC4)ccc3[N+](=O)[O-])cc2F)CC1 [Compound 325, 2-{[3-fluoro-4-(4-carboxylicpiperidino)]phenylamino}-6-[(3-morpholin-1-yl)propylamino]-3-nitropyridine] | 106% |

System: Osteoblasts (Calvarial cells)
Test: not given
Details: ICR, mouse, 72 h, 1 μM

| Compound | Cell viability (%) Calvarial cell |
| --- | --- |
| CNc1ccc([N+](=O)[O-])c(Nc2ccc(C)cc2)n1 [Compound 1, 2-(4-methylphenylamino)-6-(methylamino)-3-nitropyridine] | 106% |
| Cc1ccc(Nc2nc(NC(C)C)ccc2[N+](=O)[O-])cc1 [Compound 2, 2-(4-methylphenylamino)-6-(isopropylamino)-3-nitropyridine] | 104% |
| Cc1ccc(Nc2nc(NCC(C)C)ccc2[N+](=O)[O-])cc1 [Compound 3, 2-(4-methylphenylamino)-6-(isobutylamino)-3-nitropyridine] | 102% |
| Cc1ccc(Nc2nc(N3CCC(O)CC3)ccc2[N+](=O)[O-])cc1 [Compound 5, 2-(4-methylphenylamino)-6-(4-hydroxypiperidino)-3-nitropyridine] | 96% |
| Cc1ccc(Nc2nc(N3CCN(C)CC3)ccc2[N+](=O)[O-])cc1 [Compound 11, 2-(4-methylphenylamino)-6-(4-methylpiperazin-1-yl)-3-nitropyridine] | 103% |
| CNc1ccc([N+](=O)[O-])c(Nc2ccc(OC)cc2)n1 [Compound 15, 2-(4-methoxyphenylamino)-6-(methylamino)-3-nitropyridine] | 100% |
| COc1ccc(Nc2nc(NCC(C)C)ccc2[N+](=O)[O-])cc1 [Compound 17, 2-(4-methoxyphenylamino)-6-(isobutylamino)-3-nitropyridine] | 96% |
| COc1ccc(Nc2nc(N3CCC(O)CC3)ccc2[N+](=O)[O-])cc1 [Compound 19, 2-(4-methoxyphenylamino)-6-(4-hydroxypiperidino)-3-nitropyridine] | 94% |
| COc1ccc(Nc2nc(NC(C)(C)C)ccc2[N+](=O)[O-])cc1 [Compound 23, 2-(4-methoxyphenylamino)-6-(t-butylamino)-3-nitropyridine] | 90% |
| COc1ccc(Nc2nc(N3CCN(C)CC3)ccc2[N+](=O)[O-])cc1 [Compound 26, 2-(4-methoxyphenylamino)-6-(4-methylpiperazin-1-yl)-3-nitropyridine] | 90% |
| COc1ccc(Nc2nc(N3CCNCC3)ccc2[N+](=O)[O-])cc1 [Compound 27, 2-(4-methoxyphenylamino)-6-(piperazin-1-yl)-3-nitropyridine] | 97% |
| COc1ccc(Nc2nc(N3CCOCC3)ccc2[N+](=O)[O-])cc1 [Compound 29, 2-(4-methoxyphenylamino)-6-morpholino-3-nitropyridine] | 93% |
| CNc1ccc([N+](=O)[O-])c(Nc2ccc(C(C)(C)C)cc2)n1 [Compound 30, 2-[4-(t-butyl)phenylamino]-6-(methylamino)-3-nitropyridine] | 90% |
| CC(C)CNc1ccc([N+](=O)[O-])c(Nc2ccc(C(C)(C)C)cc2)n1 [Compound 32, 2-[4-(t-butyl)phenylamino]-6-(isobutylamino)-3-nitropyridine] | 91% |
| CC(C)(C)c1ccc(Nc2nc(N3CCC(O)CC3)ccc2[N+](=O)[O-])cc1 [Compound 34, 2-[4-(t-butyl)phenylamino]-6-(4-hydroxypiperidino)-3-nitropyridine] | 97% |
| CC(C)c1nccn1-c1ccc([N+](=O)[O-])c(Nc2ccc(C(C)(C)C)cc2)n1 [Compound 36, 2-[4-(t-butyl)phenylamino]-6-[(2-isopropyl)imidazol-1-yl]-3-nitropyridine] | 118% |
| CC(C)(C)c1ccc(Nc2nc(NCc3cccnc3)ccc2[N+](=O)[O-])cc1 [Compound 37, 2-[4-(t-butyl)phenylamino]-6-[(3-pyridyl)methylamino]-3-nitropyridine] | 104% |
| CC(C)(C)c1ccc(Nc2nc(NCc3ccncc3)ccc2[N+](=O)[O-])cc1 [Compound 38, 2-[4-(t-butyl)phenylamino]-6-[(4-pyridyl)methylamino]-3-nitropyridine] | 96% |
| CN1CCN(c2ccc([N+](=O)[O-])c(Nc3ccc(C(C)(C)C)cc3)n2)CC1 [Compound 41, 2-[4-(t-butyl)phenylamino]-6-(4-methylpiperazin-1-yl)-3-nitropyridine] | 85% |
| CC(C)(C)c1ccc(Nc2nc(N3CCOCC3)ccc2[N+](=O)[O-])cc1 [Compound 44, 2-[4-(t-butyl)phenylamino]-6-morpholino-3-nitropyridine] | 101% |
| CC(C)CNc1ccc([N+](=O)[O-])c(Nc2ccc(C#N)cc2)n1 [Compound 46, 2-(4-cyanophenylamino)-6-(isobutylamino)-3-nitropyridine] | 100% |
| Nc1ccc(Nc2nc(N3CCC(O)CC3)ccc2[N+](=O)[O-])cc1 [Compound 61, 2-[4-(amino)phenylamino]-6-(4-hydroxypiperidino)-3-nitropyridine] | 102% |
| Nc1ccc(Nc2nc(N3CCNCC3)ccc2[N+](=O)[O-])cc1 [Compound 62, 2-[4-(amino)phenylamino]-6-(piperazin-1-yl)-3-nitropyridine] | 103% |
| CN1CCN(c2ccc([N+](=O)[O-])c(Nc3ccc(N)cc3)n2)CC1 [Compound 63, 2-[4-(amino)phenylamino]-6-(4-methylpiperazin-1-yl)-3-nitropyridine] | 104% |
| Nc1ccc(Nc2nc(N3CCC(N)CC3)ccc2[N+](=O)[O-])cc1 [Compound 65, 2-[4-(amino)phenylamino]-6-(4-aminopiperidino)-3-nitropyridine] | 102% |
| Nc1ccc(Nc2nc(NCCCn3ccnc3)ccc2[N+](=O)[O-])cc1 [Compound 67, 2-[4-(amino)phenylamino]-6-[(3-imidazol-1-yl)propylamino]-3-nitropyridine] | 111% |

— patent US20110306606A1, “NOVEL 2,6-SUBSTITUTED-3-NITROPYRIDINE DERIVATIVE, METHOD FOR PREPARING SAME, AND PHARMACEUTICAL COMPOSITION INCLUDING SAME” (priority 2008, published 2011)
